Each structure is given as a SMILES string. Some results are limits rather than exact numbers.

By EC50 is commonly meant the midpoint of the concentration-response curve.

One experiment has as its target human CB2 receptors (Homo sapiens (Human), UniProt P34972). The experiment is described as follows: functional cAMP assay, CB2. The settings on record: functional cAMP assay, CHO cells expressing human CB2; read-out: human CB2 EC50. In kind it is cell-based. As to the method: (§1) CHO cells expressing human CB1 or CB2 receptors are seeded 17-24 hours prior to the experiment 50.000 cells per well in a black 96 well plate with flat clear bottom (Corning Costar #3904) in DMEM (Invitrogen No. 31331), 1×HT supplement, with 10% fetal calf serum and incubated at 5% CO2 and 37° C. in a humidified incubator. The growth medium was exchanged with Krebs Ringer Bicarbonate buffer with 1 mM IBMX and incubated at 30° C. for 30 min. Compounds were added to a final assay volume of 100 μl and incubated for 30 min at 30° C. Using the cAMP-Nano-TRF detection kit the assay (Roche Diagnostics) was stopped by the addition of 50 μl lysis reagent (Tris, NaCl, 1.5% Triton X100, 2.5% NP40, 10% NaN3) and 50 μl detection solutions (20 μM mAb Alexa700-cAMP 1:1, and 48 μM Ruthenium-2-AHA-cAMP) and shaken for 2 h at room temperature. The time-resolved energy transfer is measured by a TRF reader (Evotec Technologies GmbH), equipped with a ND:YAG laser as excitation source. The plate is measured twice with the excitation at 355 nm and at the emission with a delay of 100 ns and a gate of 100 ns, total exposure time 10s at 730 (bandwidth 30 nm) or 645 nm (bandwidth 75 nm), respectively. The FRET signal is calculated as follows: FRET=T730-Alexa730-P(T645-B645) with P=Ru730-B730/Ru645-B645, where T730 is the test well measured at […], T645 is the test well measured at 645 nm, B730 and B645 are the buffer controls at 730 nm and 645 nm, respectively. cAMP content is determined from the function of a standard curve spanning from 10 μM to 0.13 nM cAMP.
(§2) EC50 values were determined using Activity Base analysis (ID Business Solution, Limited). The EC50 values for a wide range of cannabinoid agonists generated from this assay were in agreement with the values published in the scientific literature.
For orientation: cAMP levels reflect the balance of adenylyl cyclase and phosphodiesterase activity.

In another experiment the target is human CB1 receptors (Homo sapiens (Human), UniProt P21554). The experiment can be described thus: functional cAMP assay, CB1. Format: cell-based. The settings on record: functional cAMP assay, CHO cells expressing human CB1; read-out: human CB1 EC50. The method, then: as §1, §2
Sequence of human CB1 receptors (P21554 whole entry): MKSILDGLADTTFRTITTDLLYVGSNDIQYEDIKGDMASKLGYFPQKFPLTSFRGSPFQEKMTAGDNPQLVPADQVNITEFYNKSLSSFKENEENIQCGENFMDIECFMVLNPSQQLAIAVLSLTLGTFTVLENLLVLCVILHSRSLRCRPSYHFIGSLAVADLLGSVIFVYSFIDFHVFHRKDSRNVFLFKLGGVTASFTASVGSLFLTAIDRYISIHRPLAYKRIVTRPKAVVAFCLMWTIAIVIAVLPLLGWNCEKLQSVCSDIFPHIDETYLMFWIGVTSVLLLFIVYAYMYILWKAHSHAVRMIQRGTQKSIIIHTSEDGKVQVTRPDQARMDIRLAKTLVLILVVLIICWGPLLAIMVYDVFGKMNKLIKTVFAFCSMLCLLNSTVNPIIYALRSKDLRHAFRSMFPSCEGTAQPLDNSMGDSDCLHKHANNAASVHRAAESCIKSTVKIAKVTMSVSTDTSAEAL

Sequence of human CB2 receptors (P34972 whole entry): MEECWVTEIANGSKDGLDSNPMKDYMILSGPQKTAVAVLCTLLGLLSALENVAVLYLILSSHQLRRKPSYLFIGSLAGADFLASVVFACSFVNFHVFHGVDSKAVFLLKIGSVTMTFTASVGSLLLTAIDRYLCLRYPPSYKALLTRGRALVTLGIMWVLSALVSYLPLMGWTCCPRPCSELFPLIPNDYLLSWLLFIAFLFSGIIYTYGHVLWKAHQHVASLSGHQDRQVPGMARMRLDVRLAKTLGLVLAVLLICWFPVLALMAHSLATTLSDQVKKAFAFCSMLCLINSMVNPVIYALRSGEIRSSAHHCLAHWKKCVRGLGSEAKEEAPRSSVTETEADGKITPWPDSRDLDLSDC

For the compound `NC(=O)[C@@H](NC(=O)c1cnc(C2CC2)c(OCC2CC2)n1)c1ccccc1` [Example 15, 5-Cyclopropyl-6-cyclopropylmethoxy-pyrazine-2-carboxylic acid ((S)-carbamoyl-phenyl-methyl)-amide], the values for the EC50 on human CB2 receptors and on human CB1 receptors were 0.141 µM and more than 10 µM, respectively.

For the compound `CC(C)(O)[C@H](CC1CC1)NC(=O)c1cnc(N2CC(F)(F)C2)c(OCC2CC2)n1` [Example 16, 6-Cyclopropylmethoxy-5-(3,3-difluoro-azetidin-1-yl)-pyrazine-2-carboxylic acid ((S)-1-cyclopropylmethyl-2-hydroxy-2-methyl-propyl)-amide], the EC50 at human CB2 receptors is 0.0369 µM; at human CB1 receptors, more than 10 µM.

For the compound `CC(C)(C)C(CO)NC(=O)c1cnc(C2CC2)c(OCC2CC2)n1` (stereo not shown) [Example 19, 5-Cyclopropyl-6-cyclopropylmethoxy-pyrazine-2-carboxylic acid (1-hydroxymethyl-2,2-dimethyl-propyl)-amide], the results for the EC50 at human CB2 receptors and on human CB1 receptors were 0.0535 µM and more than 10 µM, respectively.

Consider `Cc1nc([C@H](CC2CC2)NC(=O)c2cnc(N3CC(F)(F)C3)c(OCC3CC3)n2)no1` [Example 20, 6-Cyclopropylmethoxy-5-(3,3-difluoro-azetidin-1-yl)-pyrazine-2-carboxylic acid [(S)-2-cyclopropyl-1-(5-methyl-[1,2,4]oxadiazol-3-yl)-ethyl]-amide], for which the EC50 is 0.0284 µM at human CB2 receptors and more than 10 µM at human CB1 receptors.

Regarding `O=C(NC(CO)C1CC1)c1cnc(N2CC(F)(F)C2)c(OCC2CC2)n1` (stereo not shown) [Example 21, 6-Cyclopropylmethoxy-5-(3,3-difluoro-azetidin-1-yl)-pyrazine-2-carboxylic acid (1-cyclopropyl-2-hydroxy-ethyl)-amide], the figures for the EC50 at human CB2 receptors and at human CB1 receptors were 0.0613 µM and more than 10 µM, respectively.

For the compound `NC(=O)[C@@H](NC(=O)c1cnc(N2CC(F)(F)C2)c(OCC2CC2)n1)c1ccccc1` [Example 22, 6-Cyclopropylmethoxy-5-(3,3-difluoro-azetidin-1-yl)-pyrazine-2-carboxylic acid ((S)-carbamoyl-phenyl-methyl)-amide], the results for the EC50 on human CB2 receptors and at human CB1 receptors were 0.093 µM and more than 10 µM, respectively.

Take `COC(=O)[C@@H](NC(=O)c1cnc(C2CC2)c(OCC2CC2)n1)C(C)(C)C` [Example 23, (S)-2-[(5-Cyclopropyl-6-cyclopropylmethoxy-pyrazine-2-carbonyl)-amino]-3,3-dimethyl-butyric acid methyl ester]: the concentration for a half-maximal effect (EC50) on human CB2 receptors is 0.0017 µM; at human CB1 receptors, 0.157 µM.

For the compound `CNC(=O)[C@H](CC1CC1)NC(=O)c1cnc(C2CC2)c(OCC2CC2)n1` [Example 24, 5-Cyclopropyl-6-cyclopropylmethoxy-pyrazine-2-carboxylic acid ((S)-2-cyclopropyl-1-methylcarbamoyl-ethyl)-amide], the values for the concentration for a half-maximal effect (EC50) on human CB2 receptors and on human CB1 receptors were 0.199 µM and more than 10 µM, respectively.

For `CN(C)C(=O)[C@H](CC1CC1)NC(=O)c1cnc(C2CC2)c(OCC2CC2)n1` [Example 25, 5-Cyclopropyl-6-cyclopropylmethoxy-pyrazine-2-carboxylic acid ((S)-2-cyclopropyl-1-dimethylcarbamoyl-ethyl)-amide], the EC50 on human CB2 receptors is 0.0146 µM; on human CB1 receptors it was more than 10 µM.

`CNC(=O)[C@H](CC(C)C)NC(=O)c1cnc(C2CC2)c(OCC2CC2)n1` [Example 26, 5-Cyclopropyl-6-cyclopropylmethoxy-pyrazine-2-carboxylic acid ((S)-3-methyl-1-methylcarbamoyl-butyl)-amide]: the half-maximal effective concentration (EC50) was 0.0135 µM on human CB2 receptors and more than 10 µM at human CB1 receptors.

Take `CC(C)C[C@H](NC(=O)c1cnc(C2CC2)c(OCC2CC2)n1)C(=O)N(C)C` [Example 27, 5-Cyclopropyl-6-cyclopropylmethoxy-pyrazine-2-carboxylic acid ((S)-1-dimethylcarbamoyl-3-methyl-butyl)-amide]: the EC50 is 0.0027 µM on human CB2 receptors and more than 10 µM at human CB1 receptors.

The record behind these values is patent publication US9403808B2, “Pyrazine derivatives” (Hoffmann-La Roche Inc., priority 2011, dated 2016).
